Experimental data from US12251366B1, “Sulforaphane-cysteine for wound healing in diabetic subjects” (KUWAIT UNIVERSITY, priority 2024, dated 2025).
“Also recorded” adds a separate entry of the source.

How the values were obtained:
full-thickness wounds = assay: In vivo wound closure assay, excisional wound healing rat model; design: species or system GK rats; conditions: for mitigation of diabetes-related impairment of wound healing compared with VEGF: animal model of (aged) type 2 diabetes; for wound closure / wound healing: rats, topical 1.5 μmol/wound in Pluronic acid every other day, day-0 through day-7
Description: (§1) Successful wound healing necessitates a series of tightly coordinated and overlapping processes including inflammation, new tissue formation and remodeling. Fibroblasts, in response to growth factors-released mostly by macrophages, migrate to the site of injury, where they proliferate and lay down the extracellular matrix (ECM). Consequently, this facilitates cell migration and tissue reconstruction. The effect of a therapeutic concentration of SFN-Cys (1.5 μM) was investigated on the proliferation of fibroblasts isolated from the granulation tissue of control and diabetic wounds. Similarly, the effect of SFN-Cys on cell migration in the in vitro wound closure assay was also considered. […] Accordingly, in vivo wound closure properties of SFN-Cys were examined using an excisional wound healing rat model. SFN-Cys containing Pluronic acid was topically applied to the wound at a dose of 1.5 μmol concentration and the wound closure area was digitally photographed and quantified. Digital photographs were obtained on day-0 through day-7 of post wounding. […] In this context, the wound healing time-course was faster in SFN-Cys containing Pluronic acid than the Pluronic acid alone (FIG. 3C). […] VEGF is a well-established enhancer of the proliferative phase of healing.
For wounding experiments, 15-18-month female GK rats were anesthetized with intraperitoneal injection of ketamine/xylazine and full-thickness wounds were made in the mid dorsal skin with 8-mm disposable punches. To evaluate the effect of SFN-Cys on wound closure, the drug was dissolved initially with DMSO and then diluted with a 25% Pluronic acid solution at a dose of 1.5 μmol/wound; applied topically to the wound every other day. The wounds were photographed at 0-, 3- or 7-days post-wounding.

[1] = test system: neuronal, vascular, muscle, cardiac and stem cells; assay: Protection of cells from oxidative stress and inflammation-induced apoptotic cell death; format: cell-based; conditions: at certain concentrations
Source text: Thus, SNF-Cys may have a therapeutic benefit in the following conditions in addition to impaired wound healing: Sarcopenia, Fat grafting, Psoriasis, Nerve regeneration and diabetic neuropathy, Erectile dysfunction, and Cardiac fibrosis.

fibroblasts (CF, DF) [2] = assay: Proliferation of fibroblasts from control and diabetic wounds; format: cell-based, rat; conditions: 1.5 μM
Description: as §1, with “healing. […]” for “healing.”

fibroblasts (CF, DF) [3] = assay: In vitro wound healing repair assay (cell migration); format: cell-based, rat; conditions: 1.5 μM, 24 hrs
Description: Successful wound healing necessitates a series of tightly coordinated and overlapping processes including inflammation, new tissue formation and remodeling. Fibroblasts, in response to growth factors-released mostly by macrophages, migrate to the site of injury, where they proliferate and lay down the extracellular matrix (ECM). Consequently, this facilitates cell migration and tissue reconstruction. The effect of a therapeutic concentration of SFN-Cys (1.5 μM) was investigated on the proliferation of fibroblasts isolated from the granulation tissue of control and diabetic wounds. Similarly, the effect of SFN-Cys on cell migration in the in vitro wound closure assay was also considered. […] Accordingly, in vivo wound closure properties of SFN-Cys were examined using an excisional wound healing rat model. SFN-Cys containing Pluronic acid was topically applied to the wound at a dose of 1.5 μmol concentration and the wound closure area was digitally photographed and quantified. Digital photographs were obtained on day-0 through day-7 of post wounding. […] In this context, the wound healing time-course was faster in SFN-Cys containing Pluronic acid than the Pluronic acid alone (FIG. 3C). […]
Fibroblasts (1×10^5/well) were cultured until confluence. […] The closure of the wounded area was calculated using Image J software (NIH). Data are expressed as a percent of wound closure.

endothelial nitric oxide = assay: Endothelial nitric oxide activity and expression in corpus cavernosum; format: in vivo
Source text: Therapeutic rational was considered for SFN-Cys effectiveness in the following pathological conditions: Sarcopenia-SFN-Cys increased muscle weight in diabetic mice, see FIGS. 4A and 4B; Cardiac fibrosis-SFN-Cys inhibits transforming growth factor beta (TGF-β) expression, see FIG. 4C; Erectile dysfunction-SFN-Cys increased endothelial nitric oxide activity and expression in corpus cavernosum.

[4] = Toxicity assessment of chronically administered SFN-Cys (body weight, behavior); format: in vivo, mouse; conditions: mice, 21 days
Description: Testing the pharmacodynamic and toxicodynamic properties of SFN-Cys dictated the mixing SFN-Cys with a powdered diet. The estimated dose delivered by this diet was 1.5-2.5 μmol/mouse (n=4). The SFN-Cys diet was stored at 4° C. and the feeders were refilled daily for the duration of the study (21 days). Corresponding animals received food without the drug.
To strengthen this conclusion, extensive measurements were conducted on plasma levels of key parameters of kidney and liver toxicities in addition to the lipid and carbohydrate profiles.
For dietary treatment with SFN-Cys, the SFN-Cys was mixed with a powdered diet (7.5 mg of SFN-Cys per kg of food). The estimated dose delivered by this diet was about 1.0-1.5 mg/kg. The diet was stored at 4° C. and the feeders were refilled daily. Control animals received diet alone. Body weights were recorded twice a week and at the termination of the study, blood was drawn in EDTA-containing tubes, plasma was collected by centrifugation and stored at −80° C. until analysis.

Nrf2 = Nrf2 activity (NQO1-ARE luciferase) in fibroblasts; format: cell-based, rat
Description: (§2) To better characterize how SFN-Cys impacts cellular antioxidant levels, the ability of SFN-Cys to regulate the transcription factor nuclear factor erythroid 2-related factor 2 (Nrf2) was assessed, which is a master regulator of the antioxidative stress response that induces the expression of antioxidant proteins such as heme oxygenase (HO) and NAD(P)H dehydrogenase (quinine; NQO1) and key enzymes in the glutathione system. In this context, Nrf2 transcriptional activity was first measured using a vector encoding luciferase driven by the NQO1 promoter. […] Administration of SNF-Cyst at the above indicated concentration (1.5 μM, the lowest effective concentration) ameliorated diabetes-induced suppression of the Nrf2 activity and Nrf2-target genes including HO and NQO1 (FIG. 2A-D).
CF and DF were transfected with the antioxidative stress response element ARE-luciferase and pRenilla vectors using lipofectamine 2000 (Invitogen, USA). In this context, cells were plated and transfected in 12-well plates. Following treatment with SFN-Cys, cells were lysed and firefly and Renilla luciferase activity was determined using Dual luciferase assay (Promega, USA).

heme oxygenase (HO) = assay: mRNA expression of Nrf2 target gene HO in fibroblasts; format: cell-based, rat; conditions: diabetic fibroblasts, 1.5 μM
Description: as §2
Total RNA from cells or frozen sponge implants was extracted using the Trizol reagent (Invitrogen), and the RNA integrity was verified by agarose gel electrophoresis. […] The amplified sequences were assessed using the ABI 7500 Prism Sequence Detection system machine. The results were expressed as mRNA levels normalized to 18S or GAPDH in each sample.

## C[S+]([O-])CCCCNC(=S)SCC(N)C(=O)O (centres unmarked) [SFN-Cys, Sulforaphane-Cysteine]
full-thickness wounds
  mitigation of diabetes-related impairment of wound healing compared with VEGF: better than vascular endothelial growth factor (VEGF)
  wound closure / wound healing: enhanced wound closure; also recorded: ameliorated; also recorded: increases wound healing potential both in control and diabetic subjects
full-thickness wounds; listed as SNF-Cys
  mitigation of diabetes-related impairment of wound healing compared with VEGF: more efficacious than vascular endothelial growth factor (VEGF)
  wound closure / wound healing: ameliorated
[1]
  protection from oxidative state and low-grade inflammation-induced apoptotic cell death: protects
Fibroblasts (CF, DF) [2]
  cell proliferation: enhanced cell proliferation in both CF and DF
Fibroblasts (CF, DF) [3]
  percentage of increase in cell migration, diabetics versus controls: greater in diabetics as compared to controls
Fibroblasts (CF, DF) [3]; CF and DF
  cell migration (in vitro wound closure): enhanced cell migration not only in control but also in diabetic fibroblasts
Endothelial nitric oxide
  endothelial nitric oxide activity and expression: increased
[4]; SFN-Cys diet, in g (unit assumed)
  body weight: 22.7±3.2
[4]; chronic SFN-Cys diet
  signs of adverse effect (body weight and behavior): no obvious signs of adverse effect
Nrf2; DF and CF-GP, 1.5 μM
  Nrf2 transcriptional activity (NQO1 promoter luciferase): ameliorated
Nrf2; fibroblasts, Nrf2 activity and Nrf2-target genes
  lowest effective concentration: 1.5 µM
Heme oxygenase (HO)
  mRNA expression of Nrf2 target gene HO: ameliorated
